According to PubChem BioAssay (NCI):
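Test compounds were applied to cells in 96-well plates for 48 hours at 5 doses. Abbreviation: GI50, concentration required for 50% inhibition of growth. The concentration for full growth arrest is given as TGI.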

Assays:
Assay in all cases: NCI anticancer screen, dose series, 48 h
SK-MEL-2 melanoma = test system: SK-MEL-2 melanoma
MCF7 breast = test system: MCF7 breast
OVCAR-4 ovarian = test system: OVCAR-4 ovarian
OVCAR-8 ovarian = test system: OVCAR-8 ovarian
SW-620 colon = test system: SW-620 colon
SN12C renal = test system: SN12C renal
MALME-3M melanoma = test system: MALME-3M melanoma
RXF 393 renal = test system: RXF 393 renal
OVCAR-3 ovarian = test system: OVCAR-3 ovarian
LOX IMVI melanoma = test system: LOX IMVI melanoma

Row | SMILES | GI50 (SK-MEL-2 melanoma) [µM] | TGI (SK-MEL-2 melanoma) [µM] | GI50 (MCF7 breast) [µM] | TGI (MCF7 breast) [µM] | GI50 (OVCAR-4 ovarian) [µM] | TGI (OVCAR-4 ovarian) [µM] | GI50 (OVCAR-8 ovarian) [µM] | TGI (OVCAR-8 ovarian) [µM] | GI50 (SW-620 colon) [µM] | TGI (SW-620 colon) [µM] | GI50 (SN12C renal) [µM] | TGI (SN12C renal) [µM] | GI50 (MALME-3M melanoma) [µM] | TGI (MALME-3M melanoma) [µM] | TGI (RXF 393 renal) [µM] | TGI (OVCAR-3 ovarian) [µM] | TGI (LOX IMVI melanoma) [µM] | GI50 (OVCAR-3 ovarian) [µM] | GI50 (LOX IMVI melanoma) [µM] | GI50 (RXF 393 renal) [µM]
1 | COC(=O)C1=C2C3=C(C(=O)c4ccccc4C3=O)N(Cc3ccccc3)C2(OC(C)=O)C=CC1=O (stereo not given) | 42.5 | > 100 | 3.73 | > 100 | 34.4 | > 100 | 22.4 | 83 | 17.2 | 94 | 6.78 | 30.2 | 10.8 | 26.5 | – | – | – | – | – | –
2 | c1ccc2c(c1)nnn1c3cnccc3nc21 | – | > 100 | – | – | – | 96.6 | – | > 100 | – | > 100 | – | > 100 | – | > 100 | 66.3 | 55.8 | > 100 | – | – | –
3 | Cn1c(O)c(C=N)c(=O)n(C)c1=O | – | > 100 | – | – | – | > 100 | – | > 100 | – | > 100 | – | > 100 | – | > 100 | > 100 | > 100 | > 100 | – | – | –
4 | CCOC(=O)CC(=O)N(c1ccc(OC)cc1)C(C(=O)OC)c1ccccc1 (stereo not given) | – | > 100 | – | > 100 | – | – | – | > 100 | – | > 100 | – | > 100 | – | – | – | > 100 | > 100 | – | – | –
5 | COc1ccc(Nc2nc(NCc3ccccc3)c3ccccc3n2)cc1 | 8.72 | 21.7 | 1.81 | 3.63 | 3.11 | 14.8 | 2.17 | 5.15 | 2.82 | 10.4 | 5.19 | 19.6 | 1.92 | 3.69 | – | 5.73 | 3.92 | 2.35 | 1.99 | –
6 | CCCCN(CCCC)c1cc(C(=O)CCCCCN)c2ccccc2n1 | 2.56 | 4.45 | – | – | – | – | 2.03 | 4.61 | – | – | 1.63 | 3.07 | 2.16 | 4.16 | 2.89 | 3.79 | 3.13 | 2.02 | 1.69 | 1.53
7 | CCC1(O)C(=O)OCc2c1cc1n(c2=O)Cc2c-1nc1ccccc1c2OC (stereo not given) | – | 14.7 | – | – | – | 2.55 | – | > 100 | – | 29 | – | – | – | 25.3 | 0.11 | 5.85 | 0.441 | – | – | –
8 | CC1=C(C)C(=O)c2c(cc3c4ccccc4ccn23)C1=O | – | > 100 | – | – | – | – | – | > 100 | – | > 100 | – | > 100 | – | > 100 | > 100 | > 100 | > 100 | – | – | –
9 | COc1ccc(S(=O)(=O)Nc2cc(/C=C\c3cc(OC)c(OC)c(OC)c3)cc(OC)c2OC)cc1OC | 5.29 | > 100 | 0.484 | > 100 | 3.12 | > 100 | 4.08 | > 100 | 0.478 | > 100 | 1.18 | > 100 | – | – | 4.55 | > 100 | > 100 | 0.418 | 0.472 | 0.683
